The record followed here is US20060270641A1, “Method for chemoprevention of prostate cancer” (priority 2005, published 2006).

Data set [1] deals with prostate glands of TRAMP mice. As to the kind of experiment: SERMs in prevention of prostate cancer in the TRAMP model (wholemount and histology at 20 weeks). The following applies: sacrificed at 20 weeks; for Animals with prostate cancer / animals evaluated (column has no head): placebo 5/5; for Percent of animals with prostate cancer (column has no head): placebo 100%. Type of data set: in vivo, mouse. As for the experimental part:
Experimental design: Chemopreventive treatment of mice is initiated post-natal at 30 days. Three groups of 50 hybrid TRAMP male mice each are treated with either Tamoxifen citrate, Raloxifene (SERMs), or Faslodex (pure antiestrogen ICI 182,780). The drugs are obtained as customized sustained-release pellets (Innovative Research of America, Sarasota, Fla.) and delivered as subcutaneous implants (see preliminary data). Control animals receive placebo implant with no pharmacological activity. Animals (n=10) are sacrificed at periodic intervals, 10, 15, 20, 25 and 30 weeks age, and the efficacy of the treatment leading to either absence of tumor formation or reduction in tumor size, if present, is assessed by comparison with placebo control animals. Blood is collected to evaluate changes in serum androgens and estrogens with each treatment Prostatic tissues is saved: a) for morphometric studies; b) for histologic studies (the tissue will be fixed in 10% buffered formalin, processed and paraffin embedded); c) for molecular studies (the tissues is frozen in liquid nitrogen and stored at −70° C.). Necropsies and survival data is also recorded.
The results of the experiment reveal the relative chemopreventive efficacy of the various antiestrogens in the delay or prevention of prostate cancer in the TRAMP model. The morphological studies indicate the gross changes, if any, in the development of the prostate size and ductal pattern as a result of each treatment. Paraffinized tissue sections are stained using standard H&E techniques for histological changes such as PIN that will be assessed to monitor the appearance of precancerous lesions as a precursor of prostatic adenocarcinoma. Serum estradiol and total testosterone levels are measured for each age interval to assess any changes in these hormones and whether or not they correlate to changes in PIN. The peptide growth factor levels of TGF, TGF 1, TGF 3, and bFGF are quantitative in prostate samples taken at each interval. Corresponding peptide growth factor receptors are also assessed for EGFR and TGF RI and RII.

For data set [2], the system named is TRAMP mouse ventral prostate. Briefly: Histological examination (H&E) of TRAMP prostate tissue. Type of data set: in vivo. As for the experimental part: Tumors from the placebo and high toremifene-treated groups taken at the time of palpation were evaluated histologically. FIG. 2A is an H&E section of the ventral prostate of a 17-week-old normal adult mouse.

In the next data set the test system is LNCaP tumors. As to the kind of experiment: Regression of established LNCaP tumors in athymic nude mice. Type of data set: in vivo. As for the experimental part:
Materials and Methods: One million LNCaP cells in Matrigel were subcutaneously injected into each flank of athymic nude mice. A total of 40 mice were injected. After approximately 3-4 weeks, visible tumors developed. After the tumor size was recorded in two dimensions, the mice were divided into placebo and treatment groups based on equivalent tumor burden. A single pellet (placebo versus toremifene 35 mg) was subcutaneously implanted between the scapulae of each mouse. Weekly measurements of the tumor size were recorded. Tumor volume was calculated (tumor volume=[…], where L=tumor length and W=width). The tumor volume at the time of pellet implantation served as the point of reference for future comparison of that tumor's size variation. The weekly variations of each tumor volume were recorded as percent differentiation from the original measurement at pellet implantation.

Data set [3] concerns ventral prostate of TRAMP mice. Briefly: Chemopreventive activity in TRAMP transgenic mice, absence of palpable tumor formation. The following applies: for Week at which tumor formation in the ventral prostate was noted: n=12, placebo week 17; for Animals still tumor-free: all control animals had tumors. Type of data set: in vivo, mouse. The source says:
The study of prostate cancer chemoprevention has been hindered by the lack of appropriate animal models. The recent development of the transgenic adenocarcinoma mouse prostate (TRAMP) model enables the study of chemoprevention. In the TRAMP model, which is described in Greenberg et al., A Prostate cancer in a transgenic mouse, Proc. Natl Acad. Sci. USA, 1995, Vol. 92, pages 3439-3443, the PB-SV40 large T antigen (PB-Tag) transgene is expressed specifically in the epithelial cells of the murine prostate. As a result, this model has several advantages over currently existing models: 1) mice develop progressive forms of prostatic epithelial hyperplasia as early as 10 weeks and invasive adenocarcinoma around 18 weeks of age; 2) the metastatic spread of prostate cancer pattern mimics human prostate cancer with the common sites of metastases being lymph node, lung, kidney, adrenal gland, and bone; 3) the development as well as the progression of prostate cancer can be followed within a relatively short period of 10-30 weeks; 4) the tumors arise with prostate cancer transgene prior to the onset of clinical prostate cancer to directly test treatment with chemopreventive agents that may alter prostate carcinogenesis.
A study was undertaken to test the efficacy of chemopreventive agents in TRAMP transgenic animals (PBTag×FVBwt)(provided by Dr. Norman Greenberg, Baylor College of Medicine, Tex.). […] The TRAMP transgenic male litters were screened for the Large Tag transgene, and the positive males were used in the study. The antiestrogen toremifene, which was to be tested for its possible chemopreventive effects, was incorporated in customized pellets (Innovative Research of America, Sarasota, Fla.), and chemopreventive treatment of mice was initiated postnatally at 30 days (average mouse weight 14 g) Four groups of 10-12 animals each received subcutaneous implantations of 90 day-release toremifene-containing pellets. The diffusible drug dosage, adjusted for growth related changes in weight, was designed to deliver either a low dose (6 mg/kg) or a high dose (30 mg/kg) of toremifene. Control animals (n=IO) received placebo implants The efficacy of the treatment was measured by the absence of palpable tumor formation. The murine prostate tumors were harvested and evaluated by molecular and histological techniques

The test system of a further data set is prostate of TRAMP mice. As to the kind of experiment: TRAMP confirmation study: wholemount, histology, large T antigen immunohistochemistry. Type of data set: in vivo, mouse. The method, then: The present study focuses on the histological and molecular changes associated with development of prostate tumor in control animals and the mechanism of toremifene chemopreventive action with TRAMP animals which are bred, screened and treated with sustained-release drug pellets. At predetermined times, groups of 5 animals were sacrificed and their prostates were removed for analysis. The prostate glands were evaluated for the presence of tumor by histology, wholemount dissections, and large T antigen immunohistochemistry. To date, the Placebo and the Toremifene treatments have been completed for the 7, 10, 15 and 20 week time-points, and the results are described below.
Results: Prostatic wholemounts for 7,10,15, and 20 weeks for the various groups have been completed. […] By 20 weeks, there is a striking delay in tumor occurrence in the Toremifene treated group up to 35 weeks FIG. 4). […] For histological evaluation, tissue samples were fixed, processed and paraffin embedded. Sections ([…]) were cut and stained by routine H&E method.

Another data set deals with PIN. The following applies: 60 mg daily for 4 months.
Data set [4] deals with human stromal fibroblast cells. Briefly: TGFβ synthesis in human stromal fibroblast cells. Type of data set: cell-based.

As for `C[C@]12CC[C@@H]3c4ccc(O)cc4C[C@@H](CCCCCCCCC[S+]([O-])CCCC(F)(F)C(F)(F)F)[C@H]3[C@@H]1CC[C@@H]2O` (some centres unmarked) [Faslodex], in data set [1] (10 mg/kg/d), the “Animals with prostate cancer / animals evaluated (column has no head)” value is reported as 8/11 and the “Percent of animals with prostate cancer (column has no head)” value (“Percent of animals … (column has no head)” below) came out at 72%.

As for `O=C(c1ccc(OCCN2CCCCC2)cc1)c1c(-c2ccc(O)cc2)sc2cc(O)ccc12` [Raloxifene, 6-hydroxy-2-(4-hydroxyphenyl)-3-[4-(2-piperidinoethoxy)benzoyl]benzo[b]thiophene], in data set [1] (20 mg/kg/d), the “Animals with prostate cancer / animals evaluated (column has no head)” value is given as 3/10 and the “Percent of animals … (column has no head)” value is 30%.

`CC/C(=C(\c1ccccc1)c1ccc(OCCN(C)C)cc1)c1ccccc1` [Tamoxifen]: in data set [1] (20 mg/kg/d), the “Animals with prostate cancer / animals evaluated (column has no head)” value was 2/9 and the “Percent of animals … (column has no head)” value is given as 22%.

As for `CN(C)CCOc1ccc(/C(=C(/CCCl)c2ccccc2)c2ccccc2)cc1` [Toremifene], the “Mitotic index relative to placebo-treated animal” value in data set [2] (toremifene-treated 30-week-old TRAMP mouse vs placebo-treated 16-week-old) is reported as “much lower”. Besides, in data set [2] (toremifene-treated 30-week-old TRAMP mouse, H&E, FIG. 2C), the “Prostate histology (glandular architecture)” value is “retains much of the normal glandular architecture”. For the same compound, in the data set on LNCaP tumors (toremifene 35 mg pellet, 1.90 mm^3 at pellet implantation, placebo increased to 2.33), the “Mean tumor volume after treatment” value stood at 1.68 mm^3. For the same compound, the “Mean serum PSA level” value in the data set on LNCaP tumors (toremifene 35 mg pellet, not statistically significant vs placebo (p=0.755)) was 2.80 ng/mL. Further, in the data set on LNCaP tumors (toremifene 35 mg pellet, vs volume at pellet implantation), the “Change of mean tumor volume” value is −0.22 mm^3. For the same compound, the “% Change in volume relative to day 0 of treatment” value in the data set on LNCaP tumors (week 3, toremifene 35 mg sc pellet, N=11) is listed as −34.58%; with LNCaP tumors (week 4, toremifene 35 mg sc pellet, N=7), −61.01%; in the data set on LNCaP tumors (week 5, toremifene 35 mg sc pellet, N=7), −74.51%; with LNCaP tumors (week 6, toremifene 35 mg sc pellet, N=5), −61.72%. For the same compound, the “Delay of time to palpable tumors in 25% of the animals” value in data set [3] (high and low toremifene groups vs placebo) is listed as 7-8 weeks. Moreover, the “Time at which tumors were palpable in 25% of the animals” value in data set [3] (high and low toremifene groups, placebo week 23) is listed as 30-31 weeks. For the same compound, the “Week at which tumor formation in the ventral prostate was noted” value in data set [3] (high dose (30 mg/kg) 90 day-release sc pellet) is 19 week; in data set [3] (low dose (6 mg/kg) 90 day-release sc pellet), 28 week. Further, the “Increase of latency period for development of cancer in the ventral prostate” value in data set [3] (vs placebo) is “up to 11 weeks”. Besides, the Animals still tumor-free turned out to be 60% in data set [3] (week 33, high dose (30 mg/kg)) and 72% in data set [3] (week 33, low dose (6 mg/kg)). The “Delay in the occurrence of prostate cancer (wholemount analysis)” value in the data set with prostate of TRAMP mice (FIG. 3, placebo tumors by 15-20 weeks of age) is on record as “up to 20 weeks”. In the data set on prostate of TRAMP mice (FIG. 4), the “Delay in tumor occurrence” value is “up to 35 weeks”. Moreover, the “Effect on ductal development and tissue differentiation (histology)” value in the data set with prostate of TRAMP mice (H&E sections) is “inhibited the ductal development and tissue differentiation”. For the same compound, the “Acute or chronic toxicities” value in the data set with PIN is reported as “no acute or chronic toxicities”. In addition, in the data set on PIN, the “Quality of life, including potency and libido” value is reported as “unchanged”. For the same compound, the “Serum PSA, serum free testosterone, serum total testosterone and serum estradiol” value with PIN is reported as “remained in the normal ranges”. For the same compound, the Complete response with PIN (16 patients completed) is reported as 75%. In the data set on PIN (of 16 patients), the “Patients who had prostate cancer but the amount of PIN was reduced” value was determined as 3 patients. The “Patients with stable disease (PIN epithelium with atrophic and degenerative changes)” value in the data set on PIN (of 16 patients) was 1 patient. Also, in the data set on PIN (rebiopsy (8 biopsies)), the “Patients with regression of PIN to benign or atrophic prostate tissue” value is given as 12 out of 16. Moreover, the “Animals with prostate cancer / animals evaluated (column has no head)” value in data set [1] (20 mg/kg/d) is given as 1/7. The “Percent of animals … (column has no head)” value in data set [1] (20 mg/kg/d) is recorded as 14.2%. For the same compound, the TGFβ synthesis entry in data set [4] was “significantly induce”.
